Test results from paper PMC8292346, “Dysfunction of the key ferroptosis-surveilling systems hypersensitizes mice to tubular necrosis during acute kidney injury” (Nature Communications, 2021).
“And” between values parts separate entries of the source, which are not always exact repeats. Equal values may be shown once. Read-outs that look alike come from different tables or passages of the source.

Tests used:
[1] = Pharmacokinetic analysis of Nec-1f in mice (tissue PK); type: in vivo, C57BL/6 mice; details: individual mice; for concentration at 240 min / concentration at 360 min / concentration at 480 min / concentration at 1440 min / concentration at 0 min / concentration at 5 min / concentration at 15 min / concentration at 120 min / concentration at 60 min: male, C57BL/6, mouse, intraperitoneal; for concentration at 5 min: sample collection 5 min; for concentration at 15 min: sample collection 15 min; for concentration at 120 min: sample collection 120 min; for concentration at 60 min: sample collection 60 min
C57Bl/6 N mice = assay: Bilateral kidney ischemia-reperfusion injury, moderate model (30 min ischemia); type: in vivo, mouse
Description: Otherwise, the two models are identical.

[2] = liver, liver, read-out: concentration in liver
[3] = lung, lung, read-out: concentration in lung
[4] = pancreas, pancreas, read-out: concentration in pancreas
[5] = plasma, 2 mg/ml, plasma, read-out: concentration in plasma
[6] = whole blood, 2 mg/ml, blood, read-out: concentration in blood
[7] = Nec-1f - sham, individual animals
[8] = Nec-1f, 48 h after onset of reperfusion, individual animals
[9] = Nec-1f, 72 h after onset of reperfusion, individual animals
[10] = kidney IRI, 1.65 mg/kg i.p. 15 min before
[11] = mice, bilateral kidney IRI, Nec-1f 1.65 mg/kg i.p. 15 min before, individual animals
[12] = mice, kidney IRI, Nec-1f, individual animals

Compound: CN1C(=O)C(Cc2c[nH]c3c(Cl)cccc23)NC1=S (centres unmarked) [Nec-1f]
- concentration at 240 min ([1]; liver, 2 mg/kg, liver, sample collection 240 min, read-out: concentration in liver): 0 ng/mL
- concentration at 360 min ([1]; liver, 2 mg/kg, liver, sample collection 360 min, read-out: concentration in liver): 0 ng/mL
- concentration at 480 min ([1]; liver, 2 mg/kg, liver, sample collection 480 min, read-out: concentration in liver): 0 ng/mL
- concentration at 1440 min ([1]; liver, 2 mg/kg, liver, sample collection 1440 min, read-out: concentration in liver): 0 ng/mL
- concentration at 0 min ([1]; liver, liver, sample collection 0 min, read-out: concentration in liver): 0 ng/mL
- concentration at 5 min [1, 2]: 202 ng/mL
- concentration at 15 min [1, 2]: 334 ng/mL
- concentration at 120 min [1, 2]: 0 ng/mL
- concentration at 240 min ([1]; lung, 2 mg/kg, lung, sample collection 240 min, read-out: concentration in lung): 0 ng/mL
- concentration at 360 min ([1]; lung, 2 mg/kg, lung, sample collection 360 min, read-out: concentration in lung): 0 ng/mL
- concentration at 480 min ([1]; lung, 2 mg/kg, lung, sample collection 480 min, read-out: concentration in lung): 0 ng/mL
- concentration at 0 min ([1]; lung, lung, sample collection 0 min, read-out: concentration in lung): 0 ng/mL
- concentration at 5 min [1, 3]: 573 ng/mL
- concentration at 60 min [1, 3]: 321 ng/mL
- concentration at 120 min [1, 3]: 50 ng/mL
- concentration at 1440 min ([1]; lung, lung, sample collection 1440 min, read-out: concentration in lung): 0 ng/mL
- concentration at 0 min ([1]; pancreas, pancreas, sample collection 0 min, read-out: concentration in pancreas): 0 ng/mL
- concentration at 5 min [1, 4]: 8950 ng/mL
- concentration at 15 min [1, 4]: 35200 ng/mL
- concentration at 120 min [1, 4]: 490 ng/mL
- concentration at 1440 min ([1]; pancreas, pancreas, sample collection 1440 min, read-out: concentration in pancreas): 0 ng/mL
- concentration at 240 min ([1]; plasma, 2 mg/kg, plasma, sample collection 240 min, read-out: concentration in plasma): 0 ng/mL
- concentration at 360 min ([1]; plasma, 2 mg/kg, plasma, sample collection 360 min, read-out: concentration in plasma): 0 ng/mL
- concentration at 480 min ([1]; plasma, 2 mg/kg, plasma, sample collection 480 min, read-out: concentration in plasma): 0 ng/mL
- concentration at 1440 min ([1]; plasma, 2 mg/kg, plasma, sample collection 1440 min, read-out: concentration in plasma): 0 ng/mL
- concentration at 0 min ([1]; plasma, 2 mg/ml, plasma, sample collection 0 min, read-out: concentration in plasma): 0 ng/mL
- concentration at 5 min [1, 5]: 0 ng/mL
- concentration at 60 min [1, 5]: 19 ng/mL
- concentration at 120 min [1, 5]: 0 ng/mL
- concentration at 240 min ([1]; whole blood, 2 mg/kg, blood, sample collection 240 min, read-out: concentration in blood): 0 ng/mL
- concentration at 360 min ([1]; whole blood, 2 mg/kg, blood, sample collection 360 min, read-out: concentration in blood): 0 ng/mL
- concentration at 480 min ([1]; whole blood, 2 mg/kg, blood, sample collection 480 min, read-out: concentration in blood): 0 ng/mL
- concentration at 0 min ([1]; whole blood, 2 mg/ml, blood, sample collection 0 min, read-out: concentration in blood): 0 ng/mL
- concentration at 5 min [1, 6]: 0 ng/mL
- concentration at 60 min [1, 6]: 0 ng/mL
- concentration at 120 min [1, 6]: 0 ng/mL
- concentration at 1440 min ([1]; whole blood, 2 mg/ml, blood, sample collection 1440 min, read-out: concentration in blood): 0 ng/mL
- concentration in pancreas ([1]; pancreas, sample collection 240 min): 476 ng/mL and 7372 ng/mL and 2018 ng/mL
- concentration in pancreas ([1]; pancreas, sample collection 360 min): 0 ng/mL and 1720 ng/mL and 911 ng/mL
- concentration in pancreas ([1]; pancreas, sample collection 480 min): 0 ng/mL and 176 ng/mL and 625 ng/mL
- concentration in pancreas ([1]; pancreas, sample collection 1440 min): 0 ng/mL
- concentration in plasma ([1]; plasma, sample collection 0 min): 0 ng/mL
- concentration in plasma ([1]; plasma, sample collection 240 min): 0 ng/mL
- concentration in plasma ([1]; plasma, sample collection 360 min): 0 ng/mL
- concentration in plasma ([1]; plasma, sample collection 480 min): 0 ng/mL
- concentration in plasma ([1]; plasma, sample collection 1440 min): 0 ng/mL
- Serum creatinine (C57Bl/6 N mice; [7]): 23 µmol/L and 17 µmol/L
- Serum urea (C57Bl/6 N mice; [7]): 5.5 mmol/L and 5.6 mmol/L
- Serum creatinine (C57Bl/6 N mice; [8]): 28 µmol/L and 95 µmol/L and 52 µmol/L and 60 µmol/L and 40 µmol/L and 74 µmol/L and 33 µmol/L and 35 µmol/L and 39 µmol/L
- Serum urea (C57Bl/6 N mice; [8]): 19.1 mmol/L and 76 mmol/L and 75 mmol/L and 43.6 mmol/L and 50.1 mmol/L and 32.1 mmol/L and 57 mmol/L and 22.5 mmol/L and 16.7 mmol/L and 34.1 mmol/L and 24.8 mmol/L
- Serum creatinine (C57Bl/6 N mice; [9]): 79 µmol/L and 31 µmol/L and 63 µmol/L and 46 µmol/L and 53 µmol/L and 44 µmol/L
- Serum urea (C57Bl/6 N mice; [9]): 30.9 mmol/L and 8.8 mmol/L and 20.2 mmol/L and 18.9 mmol/L and 37.3 mmol/L and 16.4 mmol/L
- 4HNE staining of renal tissue (C57Bl/6 N mice; [10]): attenuated
- Infiltration of macrophages (F4/80) in the renal medulla (C57Bl/6 N mice; [10]): significantly less infiltration
- Serum creatinine vs vehicle (C57Bl/6 N mice; [10]): lower than in the vehicle-treated mice
- Serum urea vs vehicle (C57Bl/6 N mice; [10]): lower than in the vehicle-treated mice
- Tubular damage vs vehicle (C57Bl/6 N mice; [10]): lower than in the vehicle-treated mice
- 4HNE score, arbitrary [0-3] (sheet FigS2d) (C57Bl/6 N mice; kidney IRI, column headed Nec-1f): 1.6 and 1.4
- 4HNE staining score, arbitrary [0-3] (C57Bl/6 N mice; [11]): 0.6 and 1.6 and 1.8 and 0.8 and 1.2
- Tubular damage score, arbitrary [0-10] (C57Bl/6 N mice; [11]): 5 and 7 and 4
- F4/80 positivity, quantitative (Fig6i) (C57Bl/6 N mice; [12]): 8.8 cells/field and 7.8 cells/field and 20.3 cells/field and 16.2 cells/field and 20.8 cells/field
- F4/80 positivity, quantitative (Fig6h) (C57Bl/6 N mice; [12]): 3.45 cells/field and 6.077 cells/field and 9.25 cells/field and 7.125 cells/field and 9.0625 cells/field
